Earlier results, collected in patent publication EP0517160B1, “Extended-release ophthalmic preparations” (INVERNI DELLA BEFFA S.P.A., priority 1991, dated 1992).

For `C=CC1(C)CC(=O)C2(O)C(C)(O1)C(OC(C)=O)C(O)C1C(C)(C)CCC(O)C12C` (stereo not drawn) [forskoline, 7β-acetoxy-8,13-epoxy-1α,6β,9α-trihydroxy-labd-14-en-11-one], the “maximum of forskoline that dissolves” value (poloxamer 407 25% w/v in water, at 5°C) is given as 0.12% and the “solubility in water (in words)” value (water) is given as “pratically insoluble in water”.
